# Where a name gives a salt, the structure may show the parent alone.
# System: H37Rv strain of M. tuberculosis
# Assay: Alamar Blue Susceptibility Test (MABA)
# Format: cell-based
# Settings: H37Rv strain of M. tuberculosis; Alamar Blue
row,Structure (SMILES),"MABA (TB growth inhibition, colourimetric assay)"
1,"c1ccc2c(NC34CC5CC(CC(C5)C3)C4)nc(N3CCOCC3)nc2c1 [Compound 61, N-(1′-Adamantyl)-2-(morpholino)quinazolin-4-amine]",+++ (10-50 μM=+++)

# Same assay, conditions: Mycobacterium tuberculosis; H37Rv strain of M. tuberculosis; Alamar Blue; read-out: MABA (TB growth inhibition, colourimetric assay)
row,Structure (SMILES),MIC
1,"CCCNc1nc(NCc2ccccc2)c2ccccc2n1 [Compound 67, N^4-Benzyl-N^2-propylquinazoline-2,4-diamine]",10 to 50 µM
2,"COc1cc2nc(N3CCCCC3)nc(NCc3ccccc3)c2cc1OC [Compound 70, N-Benzyl-6,7-dimethoxy-2-(piperidin-1-yl)quinazolin-4-amine]",10 to 50 µM
3,"Clc1ccc2nc(N3CCCCC3)nc(NCc3ccccc3)c2c1 [Compound 71, N-Benzyl-6-chloro-2-(piperidin-1-yl)quinazolin-4-amine]",10 to 50 µM
4,"c1ccc(Nc2nc(N3CCCCC3)nc3ccccc23)cc1 [Compound 72, N-Phenyl-2-(piperidin-1-yl)quinazolin-4-amine hydrochloride]",50 to 128 µM
5,"O=C(Nc1nc(NCc2ccccc2)c2ccccc2n1)c1ccccc1 [Compound 73, N-(4-(Benzylamino)quinazolin-2-yl)benzamide]",50 to 128 µM
6,"Clc1ccc(CNc2nc(N3CCOCC3)nc3ccccc23)cc1 [Compound 74, N-(4-Chlorobenzyl)-2-morpholinoquinazolin-4-amine]",10 to 50 µM
7,"Clc1ccc(CNc2nc(N3CCCC3)nc3ccccc23)cc1 [Compound 75, N-(4-Chlorobenzyl)-2-(pyrrolidin-1-yl)quinazolin-4-amine]",10 to 50 µM
8,"FC(F)(F)c1ccc(CNc2nc(N3CCOCC3)nc3ccccc23)cc1 [Compound 77, 2-Morpholino-N-(4-(trifluoromethyl)benzyl)quinazolin-4-amine]",10 to 50 µM
9,"COc1ccccc1CNc1nc(N2CCCCC2)nc2ccccc12 [Compound 81, N-(2-Methoxybenzyl)-2-(piperidin-1-yl)quinazolin-4-amine hydrochloride]",10 to 50 µM
10,"COc1cccc(CNc2nc(N3CCCCC3)nc3ccccc23)c1 [Compound 82, N-(3-Methoxybenzyl)-2-(piperidin-1-yl)quinazolin-4-amine hydrochloride]",10 to 50 µM
11,"c1ccc2c(c1)CN(c1nc(N3CCCCC3)nc3ccccc13)C2 [Compound 85, 4-(Isoindolin-2-yl)-2-(piperidin-1-yl)quinazoline hydrochloride]",10 to 50 µM
12,"c1ccc2c(c1)CC(Nc1nc(N3CCCCC3)nc3ccccc13)C2 [Compound 86, N-(2,3-Dihydro-1H-inden-2-yl)-2-(piperidin-1-yl)quinazolin-4-amine hydrochloride]",10 to 50 µM
13,"Cc1ccc(CCNc2nc(N3CCCCC3)nc3ccccc23)cc1 [Compound 87, N-(4-Methylphenethyl)-2-(piperidin-1-yl)quinazolin-4-amine hydrochloride]",10 to 50 µM
14,"c1ccc(N2CCN(c3nc(N4CCCCC4)nc4ccccc34)CC2)cc1 [Compound 88, 4-(4-Phenylpiperazin-1-yl)-2-(piperidin-1-yl)quinazoline]",50 to 128 µM
15,"Clc1ccc(N2CCN(c3nc(N4CCCCC4)nc4ccccc34)CC2)cc1 [Compound 89, 4-(4-(4-Chlorophenyl)piperazin-1-yl)-2-(piperidin-1-yl)quinazoline]",10 to 50 µM
16,"c1ccc(C2CCN(c3nc(N4CCCCC4)nc4ccccc34)CC2)cc1 [Compound 90, 4-(4-Phenylpiperidin-1-yl)-2-(piperidin-1-yl)quinazoline]",10 to 50 µM
17,"CC(C)(Nc1nc(N2CCCC2)nc2ccccc12)c1ccccc1 [Compound 91, N-(2-Phenylpropan-2-yl)-2-(pyrrolidin-1-yl)quinazolin-4-amine]",10 to 50 µM
18,"CS(=O)(=O)c1ccc(CNc2nc(N3CCCCC3)nc3ccccc23)cc1 [Compound 94, N-(4-(Methylsulfonyl)benzyl)-2-(piperidin-1-yl)quinazolin-4-amine]",10 to 50 µM
19,"c1ccc(CCCNc2nc(N3CCCCC3)nc3ccccc23)cc1 [Compound 95, N-(3-Phenylpropyl)-2-(piperidin-1-yl)quinazolin-4-amine]",< 10 µM
20,"COc1ccc([C@@H](C)Nc2nc(N3CCCCC3)nc3ccccc23)cc1 [Compound 97, (R)—N-(1-(4-Methoxyphenyl)ethyl)-2-(piperidin-1-yl)quinazolin-4-amine]",10 to 50 µM
21,"Cc1ccc([C@@H](C)Nc2nc(N3CCCCC3)nc3ccccc23)cc1 [Compound 101, (R)-2-(Piperidin-1-yl)-N-(1-p-tolylethyl)quinazolin-4-amine]",10 to 50 µM
22,"Cc1ccc(C(C)(C)Nc2nc(N3CCCCC3)nc3ccccc23)cc1 [Compound 102, 2-(Piperidin-1-yl)-N-(2-p-tolylpropan-2-yl)quinazolin-4-amine]",10 to 50 µM
23,"Cc1ccc(C(C)(C)Nc2nc(N3CCCC3)nc3ccccc23)cc1 [Compound 103, 2-(Pyrrolidin-1-yl)-N-(2-p-tolylpropan-2-yl)quinazolin-4-amine]",10 to 50 µM
24,"Cc1ccccc1CNc1nc(N2CCCCC2)nc2ccccc12 [Compound 104, N-(2-Methylbenzyl)-2-(piperidin-1-yl)quinazolin-4-amine hydrochloride]",10 to 50 µM

row,Structure (SMILES),MIC
1,"Clc1cccc2nc(N3CCCCC3)nc(NCc3ccccc3)c12 [Compound 107, N-Benzyl-5-chloro-2-(piperidin-1-yl)quinazolin-4-amine]",10 to 50 µM
2,"CC(C)(Cc1ccc(F)cc1)Nc1nc(N2CCCCC2)nc2ccccc12 [Compound 108, N-(1-(4-Fluorophenyl)-2-methylpropan-2-yl)-2-(piperidin-1-yl)quinazolin-4-amine]",10 to 50 µM
3,"FC(F)(F)c1ccc(CNc2nc(N3CCCCC3)c3ccccc3n2)cc1 [Compound 109, 4-(Piperidin-1-yl)-N-(4-(trifluoromethyl)benzyl)quinazolin-2-amine hydrochloride]",10 to 50 µM
4,"Clc1ccc(CNc2nc(N3CCCCC3)c3ccccc3n2)cc1 [Compound 110, N-(4-Chlorobenzyl)-4-(piperidin-1-yl)quinazolin-2-amine hydrochloride]",10 to 50 µM
5,"Fc1ccc(CNc2nc(N3CCCCC3)c3ccccc3n2)cc1 [Compound 111, N-(4-Fluorobenzyl)-4-(piperidin-1-yl)quinazolin-2-amine hydrochloride]",10 to 50 µM
6,"c1ccc2c(c1)CCN(c1nc(N3CCCCC3)c3ccccc3n1)C2 [Compound 113, 2-(3,4-Dihydroisoquinolin-2(1H)-yl)-4-(piperidin-1-yl)quinazoline hydrochloride]",10 to 50 µM
7,"Fc1ccc(CNc2nc(Nc3ccc(F)cc3)nc3ccccc23)cc1 [Compound 118, N^4-(4-Fluorobenzyl)-N^2-(4-fluorophenyl)quinazoline-2,4-diamine hydrochloride]",10 to 50 µM
8,"Fc1ccc(CNc2nc(NCc3ccc(F)cc3)c3ccccc3n2)cc1 [Compound 119, N^2,N^4-bis(4-Fluorobenzyl)quinazoline-2,4-diamine hydrochloride]",10 to 50 µM
9,"CC(C)(Nc1nc(N2CCCC2)nc2ccccc12)c1ccc(F)cc1 [Compound 121, N-(2-(4-Fluorophenyl)propan-2-yl)-2-(pyrrolidin-1-yl)quinazolin-4-amine]",10 to 50 µM
10,"c1ccc(C2(Nc3nc(N4CCCCC4)nc4ccccc34)CC2)cc1 [Compound 122, N-(1-Phenylcyclopropyl)-2-(piperidin-1-yl)quinazolin-4-amine]",10 to 50 µM
11,"c1ccc(C2(Nc3nc(N4CCCC4)nc4ccccc34)CC2)cc1 [Compound 123, N-(1-Phenylcyclopropyl)-2-(pyrrolidin-1-yl)quinazolin-4-amine]",10 to 50 µM
12,"c1ccc(C2(Nc3nc(N4CCCC4)nc4ccccc34)CCCCC2)cc1 [Compound 125, N-(1-Phenylcyclohexyl)-2-(pyrrolidin-1-yl)quinazolin-4-amine]",50 to 128 µM
13,"Fc1ccc(CNc2nc(NCc3ccccc3)c3ccccc3n2)cc1 [Compound 126, N^4-Benzyl-N^2-(4-fluorobenzyl)quinazoline-2,4-diamine hydrochloride]",10 to 50 µM
14,"COc1ccc(CNc2nc(NCc3ccccc3)c3ccccc3n2)cc1 [Compound 129, N^4-Benzyl-N^2-(4-methoxybenzyl)quinazoline-2,4-diamine hydrochloride]",10 to 50 µM
15,"Fc1ccc(CNc2nc(N3CCC(F)(F)CC3)nc3ccccc23)cc1 [Compound 137, 2-(4,4-Difluoropiperidin-1-yl)-N-(4-fluorobenzyl)quinazolin-4-amine]",10 to 50 µM
16,"CCC(CC)(Nc1nc(N2CCCCC2)nc2ccccc12)c1ccccc1 [Compound 138, N-(3-Phenylpentan-3-yl)-2-(piperidin-1-yl)quinazolin-4-amine]",< 10 µM
17,"O=C1CCN(c2nc(NCc3ccccc3)c3ccccc3n2)CC1 [Compound 139, 1-(4-(Benzylamino)quinazolin-2-yl)piperidin-4-one]",< 10 µM
18,"c1ccc(CNc2nc(N3CCSCC3)nc3ccccc23)cc1 [Compound 140, N-Benzyl-2-thiomorpholinoquinazolin-4-amine hydrochloride]",< 10 µM
19,"Clc1ccc(C2(Nc3nc(N4CCCCC4)nc4ccccc34)CC2)cc1 [Compound 141, N-(1-(4-Chlorophenyl)cyclopropyl)-2-(piperidin-1-yl)quinazolin-4-amine hydrochloride]",10 to 50 µM
20,"Clc1ccc(C2(Nc3nc(N4CCCC4)nc4ccccc34)CC2)cc1 [Compound 142, N-(1-(4-Chlorophenyl)cyclopropyl)-2-(pyrrolidin-1-yl)quinazolin-4-amine hydrochloride]",10 to 50 µM
21,"OC[C@H](Cc1ccccc1)Nc1nc(N2CCCCC2)nc2ccccc12 [Compound 143, (S)-3-Phenyl-2-(2-(piperidin-1-yl)quinazolin-4-ylamino)propan-1-ol hydrochloride]",10 to 50 µM
22,"COC[C@H](Cc1ccccc1)Nc1nc(N2CCCCC2)nc2ccccc12 [Compound 144, (S)—N-(1-Methoxy-3-phenylpropan-2-yl)-2-(piperidin-1-yl)quinazolin-4-amine]",10 to 50 µM
23,"OC[C@H](Nc1nc(N2CCCCC2)nc2ccccc12)c1ccccc1 [Compound 145, (R)-2-Phenyl-2-(2-(piperidin-1-yl)quinazolin-4-ylamino)ethanol hydrochloride]",50 to 128 µM

# — US20100317607A1, “USE OF COMPOUNDS FOR PREPARING ANTI-TUBERCULOSIS AGENTS” (INFECTIOUS DISEASE RESEARCH INSTITUTE, priority 2007, published 2010)
